Patent US12187728B2 (Raze Therapeutics, Inc., priority 2015, dated 2025)

Target: T1, Human MTHFD2 (Homo sapiens, UniProt P13995)
T1 construct: residues 36-350 in Uniport ID P13995; His6 (N); made in house; host or cells: E. coli
T1 sequence (P13995 36-350): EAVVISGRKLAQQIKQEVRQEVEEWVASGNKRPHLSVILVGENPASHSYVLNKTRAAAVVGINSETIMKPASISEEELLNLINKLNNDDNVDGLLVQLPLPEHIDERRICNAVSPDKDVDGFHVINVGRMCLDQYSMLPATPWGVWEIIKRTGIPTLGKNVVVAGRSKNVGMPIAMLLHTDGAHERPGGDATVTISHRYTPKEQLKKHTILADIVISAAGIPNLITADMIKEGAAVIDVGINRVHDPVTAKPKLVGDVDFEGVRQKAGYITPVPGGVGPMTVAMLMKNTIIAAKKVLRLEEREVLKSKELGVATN
Assay: MTHFD2 Activity Assay (dehydrogenase activity, diaphorase/resazurin coupled fluorescence)
Type: biochemical
Details: inhibitory activity (IC50 and/or binding constant); 0.2 nM MTHFD2, 11 concentrations
Method in brief: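 His6-tagged MTHFD2 (res. 36-350), E. coli-expressed, at 0.2 nM preincubated with compound 15 min in Hepes pH 8.0/MgCl2/KH2PO4 buffer; 70 μM CH2-THF, 1 mM NAD+ added with resazurin/diaphorase, 30 min, EDTA stop. Resorufin fluorescence (ex 525/em 598); IC50 from 11-point 4-parameter fit.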

Row | Structure (SMILES) | IC50
1 | Cn1c(Nc2ccnc([C@H]3C[C@H]3C(=O)O)c2)nc2c1c(=O)n(Cc1cc3c(Cl)cccc3[nH]1)c(=O)n2C (racemic) [Example 368, (±)-cis-2-(4-((1-((4-chloro-1H-indol-2-yl)methyl)-3,7-dimethyl-2,6-dioxo-2,3,6,7-tetrahydro-1H-purin-8-yl)amino)pyridin-2-yl)cyclopropanecarboxylic acid] | 0.01 to 1 µM
2 | Cn1c(C(N)CC2CC2)nc2c1c(=O)n(Cc1cc3c(Cl)cccc3[nH]1)c(=O)n2C (stereo not shown) [Example 442] | 0.01 to 1 µM
3 | Cn1c(Nc2ccnc(CN)n2)nc2c1c(=O)n(Cc1cc3c(Cl)cccc3[nH]1)c(=O)n2C [Example 469, 8-(2-(aminomethyl)pyrimidin-4-ylamino)-1-((4-chloro-1H-indol-2-yl)methyl)-3,7-dimethyl-1H-purine-2,6(3H,7H)-dione] | 0.01 to 1 µM
4 | Cn1c(N[C@H]2CC[C@@H](O)C2)nc2c1c(=O)n(Cc1ccc(C(F)(F)F)cc1)c(=O)n2C (racemic) [Example 171, (±)-8-((cis)-3-hydroxycyclopentylamino)-3,7-dimethyl-1-(4-(trifluoromethyl)benzyl)-1H-purine-2,6(3H,7H)-dione] | 1 to 5 µM
5 | Cn1c(N[C@H]2CC[C@@H](O)C2)nc2c1c(=O)n(Cc1cc(-c3ccccc3)n[nH]1)c(=O)n2C (racemic) [Example 180, (±)-8-((cis)-3-hydroxycyclopentylamino)-3,7-dimethyl-1-((3-phenyl-1H-pyrazol-5-yl)methyl)-1H-purine-2,6(3H,7H)-dione] | > 10 µM
6 | Cn1c(Nc2ccncn2)nc2c1c(=O)n(Cc1cc3c(Cl)cccc3[nH]1)c(=O)n2C [Example 362, 1-((4-chloro-1H-indol-2-yl)methyl)-3,7-dimethyl-8-(pyrimidin-4-ylamino)-3,7-dihydro-1H-purine-2,6-dione] | 0.01 to 1 µM
7 | Cn1c(N2CCCC(N)C2)nc2c1c(=O)n(Cc1cc3c(Cl)cccc3[nH]1)c(=O)n2C (stereo not shown) [Example 371, 8-(3-aminopiperidin-1-yl)-1-((4-chloro-1H-indol-2-yl)methyl)-3,7-dimethyl-1H-purine-2,6(3H,7H)-dione] | 0.01 to 1 µM
8 | Cn1c(Nc2ccncc2)nc2c1c(=O)n(Cc1cc3c(Cl)cccc3[nH]1)c(=O)n2C [Example 285, 1-((4-chloro-1H-indol-2-yl)methyl)-3,7-dimethyl-8-(pyridin-4-ylamino)-1H-purine-2,6(3H,7H)-dione] | 0.01 to 1 µM
9 | Cc1cccc2[nH]c(Cn3c(=O)c4c(nc(N[C@H]5C[C@H](CO)C5)n4C)n(C)c3=O)cc12 [Example 327, 8-((1R,3R)-3-(hydroxymethyl)cyclobutylamino)-3,7-dimethyl-1-((4-methyl-1H-indol-2-yl)methyl)-1H-purine-2,6(3H,7H)-dione] | 0.01 to 1 µM
10 | Cn1c(Nc2ccncc2)nc2c1c(=O)n(Cc1cc3c(C#N)cccc3[nH]1)c(=O)n2C [Example 350, 2-((3,7-dimethyl-2,6-dioxo-8-(pyridin-4-ylamino)-2,3,6,7-tetrahydro-1H-purin-1-yl)methyl)-1H-indole-4-carbonitrile] | 5 to 10 µM
11 | Cn1c(Nc2ccncc2)nc2c1c(=O)n(Cc1[nH]c3ccccc3c1Cl)c(=O)n2C [Example 311, 1-((3-chloro-1H-indol-2-yl)methyl)-3,7-dimethyl-8-(pyridin-4-ylamino)-1H-purine-2,6(3H,7H)-dione] | 0.01 to 1 µM
12 | C[C@H](O)CNc1nc2c(c(=O)n(Cc3ccc(Cl)c(F)c3)c(=O)n2C)n1C [Example 25, 1-[(4-chloro-3-fluorophenyl)methyl]-8-{[(2S)-2-hydroxypropyl]amino}-3,7-dimethyl-2,3,6,7-tetrahydro-1H-purine-2,6-dione] | 1 to 5 µM
13 | Cc1cccc2[nH]c(Cn3c(=O)c4c(nc(Nc5ccncc5)n4C)n(C)c3=O)cc12 [Example 328, 1-((4-methyl-1H-indol-2-yl)methyl)-3,7-dimethyl-8-(pyridin-4-ylamino)-1H-purine-2,6(3H,7H)-dione] | 0.01 to 1 µM
14 | Cn1c(Nc2ncn[nH]2)nc2c1c(=O)n(Cc1cc3ccccc3[nH]1)c(=O)n2C [Example 195, 1-((1H-indol-2-yl)methyl)-8-(2H-1,2,4-triazol-3-ylamino)-3,7-dimethyl-1H-purine-2,6(3H,7H)-dione] | 1 to 5 µM
15 | Cn1c(NCCCO)nc2c1c(=O)n(Cc1ccc3sccc3c1)c(=O)n2C [Example 52, 1-(1-benzothiophen-5-ylmethyl)-8-[(3-hydroxypropyl)amino]-3,7-dimethyl-2,3,6,7-tetrahydro-1H-purine-2,6-dione] | 0.01 to 1 µM
16 | Cn1c(Nc2ccnc(CCC(=O)N3CCOCC3)n2)nc2c1c(=O)n(Cc1cc3c(Cl)cccc3[nH]1)c(=O)n2C [Example 416, 1-((4-chloro-1H-indol-2-yl)methyl)-3,7-dimethyl-8-((2-(3-morpholino-3-oxopropyl)pyrimidin-4-yl)amino)-3,7-dihydro-1H-purine-2,6-dione] | 0.01 to 1 µM
17 | CC(N)c1nc2c(c(=O)n(Cc3[nH]c4cccc(Cl)c4c3Cl)c(=O)n2C)n1C (stereo not shown) [Example 456, 8-(1-aminoethyl)-1-[(3,4-dichloro-1H-indol-2-yl)methyl]-3,7-dimethyl-purine-2,6-dione] | 0.01 to 1 µM
18 | Cn1c(Nc2ccncc2)nc2c1c(=O)n(Cc1cc3cccc(Cl)c3[nH]1)c(=O)n2C [Example 373, 1-[(7-chloro-1H-indol-2-yl)methyl]-3,7-dimethyl-8-(4-pyridylamino)purine-2,6-dione] | 0.01 to 1 µM
19 | Cn1c(Nc2ccc(C(F)(F)F)nc2)nc2c1c(=O)n(Cc1cc3c(Cl)cccc3[nH]1)c(=O)n2C [Example 382, 1-((4-chloro-1H-indol-2-yl)methyl)-3,7-dimethyl-8-(6-(trifluoromethyl)pyridin-3-ylamino)-1H-purine-2,6(3H,7H)-dione] | 0.01 to 1 µM
20 | Cn1c(Nc2ccnc(CCC(=O)O)c2)nc2c1c(=O)n(Cc1ccc(Cl)c(Cl)c1)c(=O)n2C [Example 277, 3-(4-(1-(3,4-dichlorobenzyl)-3,7-dimethyl-2,6-dioxo-2,3,6,7-tetrahydro-1H-purin-8-ylamino)pyridin-2-yl)propanoic acid] | 0.01 to 1 µM

Results, then the molecule that gave them:

Row | IC50 | Structure (SMILES)
21 | 0.01 to 1 µM | Cn1c(N[C@@H]2CCOC2)nc2c1c(=O)n(Cc1ccc(Cl)c(Cl)c1)c(=O)n2C [Example 63, 1-[(3,4-dichlorophenyl)methyl]-3,7-dimethyl-8-{[(3R)-oxolan-3-yl]amino}-2,3,6,7-tetrahydro-1H-purine-2,6-dione]
22 | 0.01 to 1 µM | Cn1c(N[C@H]2C[C@@H](CO)C2)nc2c1c(=O)n(Cc1ccc(Cl)c(Cl)c1)c(=O)n2C [Example 261, (±)-1-(3,4-dichlorobenzyl)-8-((cis)-3-(hydroxymethyl)cyclobutylamino)-3,7-dimethyl-1H-purine-2,6(3H,7H)-dione]
23 | 0.01 to 1 µM | Cn1c(NC2CCCNC2=O)nc2c1c(=O)n(Cc1ccc(Cl)c(Cl)c1)c(=O)n2C (racemic) [Example 89, (±)-1-[(3,4-dichlorophenyl)methyl]-3,7-dimethyl-8-[(2-oxopiperidin-3-yl)amino]-2,3,6,7-tetrahydro-1H-purine-2,6-dione]
24 | 0.01 to 1 µM | Cn1c(NC2CCCC(C(=O)O)C2)nc2c1c(=O)n(Cc1ccc(Cl)c(Cl)c1)c(=O)n2C (racemic) [Example 114, (±)-3-(1-(3,4-dichlorobenzyl)-3,7-dimethyl-2,6-dioxo-2,3,6,7-tetrahydro-1H-purin-8-ylamino)cyclohexanecarboxylic acid]
25 | 1 to 5 µM | Cn1c(CO)nc2c1c(=O)n(Cc1ccc(Cl)c(Cl)c1)c(=O)n2C [Example 100, 1-(3,4-dichlorobenzyl)-8-(hydroxymethyl)-3,7-dimethyl-1H-purine-2,6(3H,7H)-dione]
26 | 0.01 to 1 µM | Cn1c(N[C@H]2CCC[C@H](C(=O)O)C2)nc2c1c(=O)n(Cc1ccc(Cl)c(Cl)c1)c(=O)n2C (single isomer, unassigned) [Example 186, (1S,3S)-3-(1-(3,4-dichlorobenzyl)-3,7-dimethyl-2,6-dioxo-2,3,6,7-tetrahydro-1H-purin-8-ylamino)cyclohexanecarboxylic or (1R,3R)-3-(1-(3,4-dichlorobenzyl)-3,7-dimethyl-2,6-dioxo-2,3,6,7-tetrahydro-1H-purin-8-ylamino)cyclohexanecarboxylic acid]
27 | 1 to 5 µM | Cn1c(NCc2cn[nH]c2)nc2c1c(=O)n(Cc1ccc(Cl)c(Cl)c1)c(=O)n2C [Example 42, 1-[(3,4-dichlorophenyl)methyl]-3,7-dimethyl-8-[(1H-pyrazol-4-ylmethyl)amino]-2,3,6,7-tetrahydro-1H-purine-2,6-dione]
28 | 1 to 5 µM | Cn1c(NCC2(O)CCCCC2)nc2c1c(=O)n(Cc1ccc(Cl)c(Cl)c1)c(=O)n2C [Example 106, 1-(3,4-dichlorobenzyl)-8-((1-hydroxycyclohexyl)methylamino)-3,7-dimethyl-1H-purine-2,6(3H,7H)-dione]
29 | 0.01 to 1 µM | Cn1c(Nc2ccc(C(=O)O)cc2)nc2c1c(=O)n(Cc1ccc(Cl)c(Cl)c1)c(=O)n2C [Example 269, 4-[[1-[(3,4-dichlorophenyl)methyl]-3,7-dimethyl-2,6-dioxo-purin-8-yl]amino]benzoic acid]
30 | 1 to 5 µM | Cn1c(NCc2cccnc2)nc2c1c(=O)n(Cc1ccc(Cl)c(Cl)c1)c(=O)n2C [Example 117, 1-(3,4-dichlorobenzyl)-3,7-dimethyl-8-(pyridin-3-ylmethylamino)-1H-purine-2,6(3H,7H)-dione]
31 | 1 to 5 µM | C=Cc1nc2c(c(=O)n(Cc3ccc(Cl)c(Cl)c3)c(=O)n2C)n1C [Example 160, 1-(3,4-dichlorobenzyl)-3,7-dimethyl-8-vinyl-1H-purine-2,6(3H,7H)-dione]
